Reference: patent US20110124877A1, “5-BENZYL-4-AZOLYLMETHYL-4-SPIRO[2.4]HEPTANOL DERIVATIVES, METHODS FOR PRODUCING THE SAME, AND AGRO-HORTICULTURAL AGENTS AND INDUSTRIAL MATERIAL PROTECTING AGENTS THEREOF” (KUREHA CORPORATION, priority 2008, published 2011)

Assays:
[1] = test system: cucumber gray mold microorganism; test: Cucumber gray mold preventing effect assay; assay type: in vivo, Botrytis cinerea; conditions: analogous assay at 25 mg/l
Procedure: The sprayed leaves were air-dried, and loaded with a paper disc (8 mm in diameter) soaked with a spore suspension of a cucumber gray mold microorganism, and kept at 20 degrees C. and a high humidity. 4 Days after inoculation, the cucumber gray mold severity was investigated, and the protective value was calculated by the following equation. [table]

[2] = test system: wheat septoria bloth microorganism (Septoria tritici); test: Antimicroorganism effect, mycelial extension on PDA plate; assay type: cell-based; conditions: Zymoseptoria tritici, PDA plate medium, 50 mg/l, 1 to 3 days, read-out: growth inhibition grade
[3] = test system: wheat stagonospora blotch microorganism (Phaeosphaeria nodorum); test: as above; assay type: cell-based; conditions: Parastagonospora nodorum, PDA plate medium, 50 mg/l, 1 to 3 days, read-out: growth inhibition grade
[4] = test system: wheat eye spot microorganism (Pseudocercosporella herpotrichoides); test: as above; assay type: cell-based; conditions: Oculimacula yallundae, PDA plate medium, 50 mg/l, 1 to 3 days, read-out: growth inhibition grade
[5] = test system: wheat pink snow mold microorganism (Microdochium nivale); test: as above; assay type: cell-based; conditions: PDA plate medium, 50 mg/l, 1 to 3 days, read-out: growth inhibition grade
[6] = test system: wheat take-all microorganism (Gaeumannomyces graminis); test: as above; assay type: cell-based; conditions: PDA plate medium, 50 mg/l, 1 to 3 days, read-out: growth inhibition grade
[7] = test system: barley stripe microorganism (Pyrenophora graminea); test: as above; assay type: cell-based; conditions: PDA plate medium, 50 mg/l, 1 to 3 days, read-out: growth inhibition grade
[8] = test system: barley scald microorganism (Rhynchosporium secalis); test: as above; assay type: cell-based; conditions: PDA plate medium, 50 mg/l, 1 to 3 days, read-out: growth inhibition grade
[9] = test system: wheat fusarium blight microorganism (Fusarium graminearum); test: microbe, parasite or virus in culture; assay type: cell-based; conditions: read-out: growth inhibition grade
[10] = test system: barley loose smut microorganism (Ustilago nuda); test: Antimicroorganism effect, mycelial extension on PDA plate; assay type: cell-based; conditions: PDA plate medium, 50 mg/l, 1 to 3 days, read-out: growth inhibition grade
[11] = test system: rice blast microorganism (Pyricularia oryzae); test: microbe, parasite or virus in culture; assay type: cell-based; conditions: read-out: growth inhibition grade
[12] = test system: ricesheath blight microorganism (Rhizoctonia solani); test: Antimicroorganism effect, mycelial extension on PDA plate; assay type: cell-based; conditions: PDA plate medium, 50 mg/l, 1 to 3 days, read-out: growth inhibition grade
[13] = test system: rice bakanae disease microorganism (Giberella fujikuroi); test: as above; assay type: cell-based; conditions: PDA plate medium, 50 mg/l, 1 to 3 days, read-out: growth inhibition grade
[14] = test system: rice seedling blight microorganism (Rhizopus) (Rhizopus oryzae); test: as above; assay type: cell-based; conditions: Rhizopus arrhizus, PDA plate medium, 50 mg/l, 1 to 3 days, read-out: growth inhibition grade
[15] = test system: apple alternaria blotch microorganism (Alternaria alternata); test: as above; assay type: cell-based; conditions: PDA plate medium, 50 mg/l, 1 to 3 days, read-out: growth inhibition grade
[16] = test system: sclerotinia rot microorganism (Sclerotinia sclerotiorum); test: as above; assay type: cell-based; conditions: PDA plate medium, 50 mg/l, 1 to 3 days, read-out: growth inhibition grade
[17] = test system: gray mold microorganism (Botritis cinerea); test: as above; assay type: cell-based; conditions: PDA plate medium, 50 mg/l, 1 to 3 days, read-out: growth inhibition grade
[18] = test system: anthracnose microorganism (Glomerella cingulata); test: as above; assay type: cell-based; conditions: Colletotrichum gloeosporioides, PDA plate medium, 50 mg/l, 1 to 3 days, read-out: growth inhibition grade
[19] = test system: cucumber fusarium wilt microorganism (Fusarium oxysporum); test: as above; assay type: cell-based; conditions: PDA plate medium, 50 mg/l, 1 to 3 days, read-out: growth inhibition grade
[20] = test system: citrous blue mold microorganism (Penicillium italicum); test: as above; assay type: cell-based; conditions: PDA plate medium, 50 mg/l, 1 to 3 days, read-out: growth inhibition grade
[21] = test system: sugar beet cercospora leaf spot microorganism (Cercospora beticola); test: as above; assay type: cell-based; conditions: PDA plate medium, 50 mg/l, 1 to 3 days, read-out: growth inhibition grade
[22] = test system: Aspergillus microorganism (Aspergillus sp.); test: as above; assay type: cell-based; conditions: PDA plate medium, 50 mg/l, 1 to 3 days, read-out: growth inhibition grade
[23] = test system: Tricoderma microorganism (Trichoderma sp.); test: as above; assay type: cell-based; conditions: PDA plate medium, 50 mg/l, 1 to 3 days, read-out: growth inhibition grade
[24] = test system: penicillium microorganism (Penicillium sp.); test: as above; assay type: cell-based; conditions: PDA plate medium, 50 mg/l, 1 to 3 days, read-out: growth inhibition grade
[25] = test system: Cladosporium microorganism (Cladosporium sp.); test: as above; assay type: cell-based; conditions: PDA plate medium, 50 mg/l, 1 to 3 days, read-out: growth inhibition grade
[26] = test system: Mucor microorganism (Mucor sp.); test: as above; assay type: cell-based; conditions: PDA plate medium, 50 mg/l, 1 to 3 days, read-out: growth inhibition grade
[27] = test system: Aureobasidium microorganism (Aureobasidium sp.); test: as above; assay type: cell-based; conditions: PDA plate medium, 50 mg/l, 1 to 3 days, read-out: growth inhibition grade
[28] = test system: Curvularia microorganism (Curvularia sp.); test: as above; assay type: cell-based; conditions: PDA plate medium, 50 mg/l, 1 to 3 days, read-out: growth inhibition grade
[29] = test system: wood denaturing microorganism (Tyromyces palustris); test: as above; assay type: cell-based; conditions: PDA plate medium, 50 mg/l, 1 to 3 days, read-out: growth inhibition grade
[30] = test system: wood denaturing microorganism (Coriolus versicolor); test: as above; assay type: cell-based; conditions: Trametes versicolor, PDA plate medium, 50 mg/l, 1 to 3 days, read-out: growth inhibition grade

## OC1(Cn2cncn2)C(Cc2ccc(Cl)cc2)CCC12CC2 (single isomer, unassigned) [Compound I-1, 5-(4-chlorobenzyl)-4-(1H-1,2,4-triazol-1-ylmethyl)-4-spiro[2.4]heptanol]
[1]
  Controlling value: 100%
  activity compared with Compound (A): higher activity
[2]
  inhibition at 50 µg/mL: > 90%
[3]
  inhibition at 50 µg/mL: > 90%
[4]
  inhibition at 50 µg/mL: > 90%
[5]
  inhibition at 50 µg/mL: 70 to 90%
[6]
  inhibition at 50 µg/mL: > 90%
[7]
  inhibition at 50 µg/mL: > 90%
[8]
  inhibition at 50 µg/mL: > 90%
[9]
  inhibition at 50 µg/mL: > 90%
[10]
  inhibition at 50 µg/mL: 70 to 90%
[11]
  inhibition at 50 µg/mL: > 90%
[12]
  inhibition at 50 µg/mL: 70 to 90%
[13]
  inhibition at 50 µg/mL: > 90%
[14]
  inhibition at 50 µg/mL: 70 to 90%
[15]
  inhibition at 50 µg/mL: 70 to 90%
[16]
  inhibition at 50 µg/mL: > 90%
[17]
  inhibition at 50 µg/mL: > 90%
[18]
  inhibition at 50 µg/mL: > 90%
[19]
  inhibition at 50 µg/mL: > 90%
[20]
  inhibition at 50 µg/mL: > 90%
[21]
  inhibition at 50 µg/mL: > 90%
[22]
  inhibition at 50 µg/mL: > 90%
[23]
  inhibition at 50 µg/mL: > 90%
[24]
  inhibition at 50 µg/mL: > 90%
[25]
  inhibition at 50 µg/mL: > 90%
[26]
  inhibition at 50 µg/mL: 70 to 90%
[27]
  inhibition at 50 µg/mL: 70 to 90%
[28]
  inhibition at 50 µg/mL: 70 to 90%
[29]
  inhibition at 50 µg/mL: > 90%
[30]
  inhibition at 50 µg/mL: > 90%
other
  melting point: 85.5 to 87 °C

## OC1(Cn2cncn2)C(Cc2ccc(Cl)cc2)CCC12CC2 (single isomer, unassigned) [Compound I-2, 5-(4-chlorobenzyl)-4-(1H-1,2,4-triazol-1-ylmethyl)-4-spiro[2.4]heptanol]
other
  melting point: 166 to 167 °C

## OC1(Cn2cncn2)C(Cc2cccc(Cl)c2)CCC12CC2 (single isomer, unassigned) [Compound I-3, 5-(3-chlorobenzyl)-4-(1H-1,2,4-triazol-1-ylmethyl)-4-spiro[2.4]heptanol]
[2]
  inhibition at 50 µg/mL: > 90%
[3]
  inhibition at 50 µg/mL: > 90%
[4]
  inhibition at 50 µg/mL: > 90%
[5]
  inhibition at 50 µg/mL: 70 to 90%
[6]
  inhibition at 50 µg/mL: > 90%
[7]
  inhibition at 50 µg/mL: > 90%
[8]
  inhibition at 50 µg/mL: > 90%
[9]
  inhibition at 50 µg/mL: > 90%
[10]
  inhibition at 50 µg/mL: 70 to 90%
[11]
  inhibition at 50 µg/mL: > 90%
[12]
  inhibition at 50 µg/mL: 70 to 90%
[13]
  inhibition at 50 µg/mL: > 90%
[14]
  inhibition at 50 µg/mL: 70 to 90%
[15]
  inhibition at 50 µg/mL: 70 to 90%
[16]
  inhibition at 50 µg/mL: > 90%
[17]
  inhibition at 50 µg/mL: > 90%
[18]
  inhibition at 50 µg/mL: > 90%
[19]
  inhibition at 50 µg/mL: > 90%
[20]
  inhibition at 50 µg/mL: > 90%
[21]
  inhibition at 50 µg/mL: > 90%
[22]
  inhibition at 50 µg/mL: > 90%
[23]
  inhibition at 50 µg/mL: > 90%
[24]
  inhibition at 50 µg/mL: > 90%
[25]
  inhibition at 50 µg/mL: > 90%
[26]
  inhibition at 50 µg/mL: 70 to 90%
[27]
  inhibition at 50 µg/mL: 70 to 90%
[28]
  inhibition at 50 µg/mL: 70 to 90%
[29]
  inhibition at 50 µg/mL: > 90%
[30]
  inhibition at 50 µg/mL: > 90%
other
  melting point: 84.5 to 85.5 °C

## OC1(Cn2cncn2)C(Cc2cccc(Cl)c2)CCC12CC2 (single isomer, unassigned) [Compound I-4, 5-(3-chlorobenzyl)-4-(1H-1,2,4-triazol-1-ylmethyl)-4-spiro[2.4]heptanol]
other
  melting point: 120 to 121 °C
